Assay results published in the supplement of paper PMC10307832.

Assays:
Assay in all cases: relative viability (nuclei count vs DMSO), 5 days (fraction); higher = more cells survive
XMD14-99 + Navitoclax = compound: CN1CCN(CC1)C2=CC(=C(C=C2)NC3=NC(=C(S3)C(=O)C4=C(C=CC=C4Cl)Cl)N)OC [XMD14-99] + CC1(C)CCC(c2ccc(Cl)cc2)=C(CN2CCN(c3ccc(C(=O)NS(=O)(=O)c4ccc(N[C@H](CCN5CCOCC5)CSc5ccccc5)c(S(=O)(=O)C(F)(F)F)c4)cc3)CC2)C1 [Navitoclax] (partner 0.5 µM)
Summary of the method: (§1)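 Lung cancer cell lines were seeded in 1536-well plates and dosed by pin tool the next day, with either a single drug or a fixed anchor-drug dose combined with five library-drug doses (not always all listed) spaced in √10 steps. Five days later, one step fixed the cells and stained their nuclei (final 0.05% Triton X-100, 1% formaldehyde, 1 ug/ml Hoechst), and nuclei were counted on 4× images. Relative viability is the nuclei count in treated wells divided by the count in vehicle wells, and each value is the median of duplicate plates.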

XMD14-99 + Lapatinib = compound: CN1CCN(CC1)C2=CC(=C(C=C2)NC3=NC(=C(S3)C(=O)C4=C(C=CC=C4Cl)Cl)N)OC [XMD14-99] + CS(=O)(=O)CCNCc1ccc(-c2ccc3ncnc(Nc4ccc(OCc5cccc(F)c5)c(Cl)c4)c3c2)o1 [Lapatinib] (partner 2 µM)
Summary of the method: as §1

AZD1208 + Luminespib = compound: N[C@@H]1CCCN(c2c(/C=C3\SC(=O)NC3=O)cccc2-c2ccccc2)C1 [AZD1208] + CCNC(=O)c1noc(-c2cc(C(C)C)c(O)cc2O)c1-c1ccc(CN2CCOCC2)cc1 [Luminespib] (partner 0.01 µM)
Summary of the method: as §1

AZD1208 + Dasatinib = compound: N[C@@H]1CCCN(c2c(/C=C3\SC(=O)NC3=O)cccc2-c2ccccc2)C1 [AZD1208] + Cc1nc(Nc2ncc(C(=O)Nc3c(C)cccc3Cl)s2)cc(N2CCN(CCO)CC2)n1 [Dasatinib] (partner 0.075 µM)
Summary of the method: as §1

With 201T the relative viability (XMD14-99 + Navitoclax; first compound 0.08 µM) was 1.18, the relative viability (XMD14-99 + Navitoclax; first compound 0.8 µM) was 1.17 and the relative viability (XMD14-99 + Navitoclax; first compound 2.53 µM) was 1.11. It also gave a relative viability (XMD14-99 + Navitoclax; first compound 8 µM) of 1.15, a relative viability (XMD14-99 + Lapatinib; first compound 0.08 µM) of 1.02 and a relative viability (XMD14-99 + Lapatinib; first compound 0.8 µM) of 1.05. It also gave a relative viability (XMD14-99 + Lapatinib; first compound 2.53 µM) of 1, a relative viability (XMD14-99 + Lapatinib; first compound 8 µM) of 0.936 and a relative viability (AZD1208 + Luminespib; first compound 0.08 µM) of 1.07. It also gave a relative viability (AZD1208 + Luminespib; first compound 0.253 µM) of 1.02, a relative viability (AZD1208 + Luminespib; first compound 0.8 µM) of 0.961 and a relative viability (AZD1208 + Luminespib; first compound 2.53 µM) of 1.12. It also gave a relative viability (AZD1208 + Luminespib; first compound 8 µM) of 0.98, a relative viability (AZD1208 + Dasatinib; first compound 0.08 µM) of 0.579 and a relative viability (AZD1208 + Dasatinib; first compound 0.253 µM) of 0.557. The relative viability (AZD1208 + Dasatinib; first compound 0.8 µM) was 0.522, the relative viability (AZD1208 + Dasatinib; first compound 2.53 µM) was 0.504 and the relative viability (AZD1208 + Dasatinib; first compound 8 µM) was 0.51.
For NCI-H2170, the relative viability (XMD14-99 + Navitoclax; first compound 0.08 µM) was 0.574, the relative viability (XMD14-99 + Navitoclax; first compound 0.8 µM) was 0.594 and the relative viability (XMD14-99 + Navitoclax; first compound 2.53 µM) was 0.644. It also gave a relative viability (XMD14-99 + Navitoclax; first compound 8 µM) of 0.603, a relative viability (XMD14-99 + Lapatinib; first compound 0.08 µM) of 0.263 and a relative viability (XMD14-99 + Lapatinib; first compound 0.8 µM) of 0.27. For the same cell line, the relative viability (XMD14-99 + Lapatinib; first compound 2.53 µM) was 0.245, the relative viability (XMD14-99 + Lapatinib; first compound 8 µM) was 0.259 and the relative viability (AZD1208 + Luminespib; first compound 0.08 µM) was 0.65. The relative viability (AZD1208 + Luminespib; first compound 0.253 µM) was 0.656, the relative viability (AZD1208 + Luminespib; first compound 0.8 µM) was 0.632 and the relative viability (AZD1208 + Luminespib; first compound 2.53 µM) was 0.512. It also gave a relative viability (AZD1208 + Luminespib; first compound 8 µM) of 0.321, a relative viability (AZD1208 + Dasatinib; first compound 0.08 µM) of 0.615 and a relative viability (AZD1208 + Dasatinib; first compound 0.253 µM) of 0.542. It also gave a relative viability (AZD1208 + Dasatinib; first compound 0.8 µM) of 0.478, a relative viability (AZD1208 + Dasatinib; first compound 2.53 µM) of 0.485 and a relative viability (AZD1208 + Dasatinib; first compound 8 µM) of 0.406.
NCI-H520 was tested, and the relative viability (XMD14-99 + Navitoclax; first compound 0.08 µM) was 0.992, the relative viability (XMD14-99 + Navitoclax; first compound 0.8 µM) was 1.1 and the relative viability (XMD14-99 + Navitoclax; first compound 2.53 µM) was 1.12. It also gave a relative viability (XMD14-99 + Navitoclax; first compound 8 µM) of 1.01, a relative viability (XMD14-99 + Lapatinib; first compound 0.08 µM) of 0.845 and a relative viability (XMD14-99 + Lapatinib; first compound 0.8 µM) of 0.88. The relative viability (XMD14-99 + Lapatinib; first compound 2.53 µM) was 0.834, the relative viability (XMD14-99 + Lapatinib; first compound 8 µM) was 0.652 and the relative viability (AZD1208 + Luminespib; first compound 0.08 µM) was 0.253. For the same cell line, the relative viability (AZD1208 + Luminespib; first compound 0.253 µM) was 0.246, the relative viability (AZD1208 + Luminespib; first compound 0.8 µM) was 0.212 and the relative viability (AZD1208 + Luminespib; first compound 2.53 µM) was 0.201. The relative viability (AZD1208 + Luminespib; first compound 8 µM) was 0.207, the relative viability (AZD1208 + Dasatinib; first compound 0.08 µM) was 0.151 and the relative viability (AZD1208 + Dasatinib; first compound 0.253 µM) was 0.196. The relative viability (AZD1208 + Dasatinib; first compound 0.8 µM) was 0.173, the relative viability (AZD1208 + Dasatinib; first compound 2.53 µM) was 0.154 and the relative viability (AZD1208 + Dasatinib; first compound 8 µM) was 0.178.
Work on NCI-H727 yielded a relative viability (XMD14-99 + Navitoclax; first compound 0.08 µM) of 0.399, a relative viability (XMD14-99 + Navitoclax; first compound 0.8 µM) of 0.349 and a relative viability (XMD14-99 + Navitoclax; first compound 2.53 µM) of 0.339. For the same cell line, the relative viability (XMD14-99 + Navitoclax; first compound 8 µM) was 0.219, the relative viability (XMD14-99 + Lapatinib; first compound 0.08 µM) was 0.791 and the relative viability (XMD14-99 + Lapatinib; first compound 0.8 µM) was 0.935. It also gave a relative viability (XMD14-99 + Lapatinib; first compound 2.53 µM) of 0.721, a relative viability (XMD14-99 + Lapatinib; first compound 8 µM) of 0.484 and a relative viability (AZD1208 + Luminespib; first compound 0.08 µM) of 0.362. It also gave a relative viability (AZD1208 + Luminespib; first compound 0.253 µM) of 0.384, a relative viability (AZD1208 + Luminespib; first compound 0.8 µM) of 0.431 and a relative viability (AZD1208 + Luminespib; first compound 2.53 µM) of 0.42. It also gave a relative viability (AZD1208 + Luminespib; first compound 8 µM) of 0.458, a relative viability (AZD1208 + Dasatinib; first compound 0.08 µM) of 0.315 and a relative viability (AZD1208 + Dasatinib; first compound 0.253 µM) of 0.322. It also gave a relative viability (AZD1208 + Dasatinib; first compound 0.8 µM) of 0.315, a relative viability (AZD1208 + Dasatinib; first compound 2.53 µM) of 0.313 and a relative viability (AZD1208 + Dasatinib; first compound 8 µM) of 0.314.
HCC-15 was tested, and the relative viability (XMD14-99 + Navitoclax; first compound 0.08 µM) was 0.663, the relative viability (XMD14-99 + Navitoclax; first compound 0.8 µM) was 0.617 and the relative viability (XMD14-99 + Navitoclax; first compound 2.53 µM) was 0.609. The relative viability (XMD14-99 + Navitoclax; first compound 8 µM) was 0.494, the relative viability (XMD14-99 + Lapatinib; first compound 0.08 µM) was 0.867 and the relative viability (XMD14-99 + Lapatinib; first compound 0.8 µM) was 0.894. It also gave a relative viability (XMD14-99 + Lapatinib; first compound 2.53 µM) of 0.792, a relative viability (XMD14-99 + Lapatinib; first compound 8 µM) of 0.611 and a relative viability (AZD1208 + Luminespib; first compound 0.08 µM) of 0.359. It also gave a relative viability (AZD1208 + Luminespib; first compound 0.253 µM) of 0.235, a relative viability (AZD1208 + Luminespib; first compound 0.8 µM) of 0.319 and a relative viability (AZD1208 + Luminespib; first compound 2.53 µM) of 0.431. The relative viability (AZD1208 + Luminespib; first compound 8 µM) was 0.192, the relative viability (AZD1208 + Dasatinib; first compound 0.08 µM) was 0.57 and the relative viability (AZD1208 + Dasatinib; first compound 0.253 µM) was 0.487. It also gave a relative viability (AZD1208 + Dasatinib; first compound 0.8 µM) of 0.489, a relative viability (AZD1208 + Dasatinib; first compound 2.53 µM) of 0.492 and a relative viability (AZD1208 + Dasatinib; first compound 8 µM) of 0.368.
NCI-H460 showed a relative viability (XMD14-99 + Navitoclax; first compound 0.08 µM) of 1.06, a relative viability (XMD14-99 + Navitoclax; first compound 0.8 µM) of 1.02 and a relative viability (XMD14-99 + Navitoclax; first compound 2.53 µM) of 1.03. The relative viability (XMD14-99 + Navitoclax; first compound 8 µM) was 0.767, the relative viability (XMD14-99 + Lapatinib; first compound 0.08 µM) was 0.863 and the relative viability (XMD14-99 + Lapatinib; first compound 0.8 µM) was 0.977. The relative viability (XMD14-99 + Lapatinib; first compound 2.53 µM) was 0.927, the relative viability (XMD14-99 + Lapatinib; first compound 8 µM) was 0.679 and the relative viability (AZD1208 + Luminespib; first compound 0.08 µM) was 0.0309. For the same cell line, the relative viability (AZD1208 + Luminespib; first compound 0.253 µM) was 0.0217, the relative viability (AZD1208 + Luminespib; first compound 0.8 µM) was 0.0281 and the relative viability (AZD1208 + Luminespib; first compound 2.53 µM) was 0.0375. For the same cell line, the relative viability (AZD1208 + Luminespib; first compound 8 µM) was 0.0205, the relative viability (AZD1208 + Dasatinib; first compound 0.08 µM) was 0.54 and the relative viability (AZD1208 + Dasatinib; first compound 0.253 µM) was 0.562. It also gave a relative viability (AZD1208 + Dasatinib; first compound 0.8 µM) of 0.473, a relative viability (AZD1208 + Dasatinib; first compound 2.53 µM) of 0.365 and a relative viability (AZD1208 + Dasatinib; first compound 8 µM) of 0.334.
Cell Line EPLC-272H has a relative viability (XMD14-99 + Navitoclax; first compound 0.08 µM) of 1.14, a relative viability (XMD14-99 + Navitoclax; first compound 0.8 µM) of 1.1 and a relative viability (XMD14-99 + Navitoclax; first compound 2.53 µM) of 1.29. It also gave a relative viability (XMD14-99 + Navitoclax; first compound 8 µM) of 1.11, a relative viability (XMD14-99 + Lapatinib; first compound 0.08 µM) of 0.927 and a relative viability (XMD14-99 + Lapatinib; first compound 0.8 µM) of 0.943. The relative viability (XMD14-99 + Lapatinib; first compound 2.53 µM) was 0.924, the relative viability (XMD14-99 + Lapatinib; first compound 8 µM) was 0.846 and the relative viability (AZD1208 + Luminespib; first compound 0.08 µM) was 0.276. For the same cell line, the relative viability (AZD1208 + Luminespib; first compound 0.253 µM) was 0.557, the relative viability (AZD1208 + Luminespib; first compound 0.8 µM) was 0.288 and the relative viability (AZD1208 + Luminespib; first compound 2.53 µM) was 0.219. For the same cell line, the relative viability (AZD1208 + Luminespib; first compound 8 µM) was 0.215, the relative viability (AZD1208 + Dasatinib; first compound 0.08 µM) was 0.3 and the relative viability (AZD1208 + Dasatinib; first compound 0.253 µM) was 0.363. It also gave a relative viability (AZD1208 + Dasatinib; first compound 0.8 µM) of 0.286, a relative viability (AZD1208 + Dasatinib; first compound 2.53 µM) of 0.305 and a relative viability (AZD1208 + Dasatinib; first compound 8 µM) of 0.252.
